We go through 17 molecules from patent US6524842B1, “Biodegradation of gasoline oxygenates” (Envirogen, Inc., priority 2000, dated 2003).

The test system of experiment [1] is strain ENV735. The experiment is described as follows: Growth substrates for ENV735. The experiment is classed as cell-based, Hydrogenophaga flava.
The test system of experiment [2] is strain ENV735. Kind of experiment: MTBE degradation assays with ENV735 cells. It is filed as cell-based, Hydrogenophaga flava.
The test system of experiment [3] is strain ENV735. The experiment is described as follows: TBA degradation by ENV735 cells. It is filed as cell-based, Hydrogenophaga flava.
The subject of experiment [4] is strain ENV735. Kind of experiment: [14C]MTBE mineralization to 14CO2. The experiment is classed as cell-based, Hydrogenophaga flava. The following applies: YE-grown cells, 10 mg/L, within 24 hr. The source says: Cells were collected by centrifugation, washed, and suspended in BSM to an OD550 of 1.0. […] At timed intervals air was passed through the samples and organic compounds and ^14CO2 in the effluent air were trapped (Marinucci, A. C. and R. Bartha, “Apparatus for monitoring the mineralization of volatile ^14C-labeled compounds”, Applied and Environmental Microbiology, 38:1020-1022, (1979)). Oxosol C14 (National Diagnostics, Atlanta, Ga.) served as a CO2 trapping solution and liquid scintillation cocktail. The amount of ^14CO2 produced was quantified by liquid scintillation counting.

For experiment [5], the system named is anaerobic sediment samples. The conditions noted are these: the one active anaerobic sediment sample; cited from earlier work.
A further experiment deals with ENV 735. The experiment is described as follows: Membrane bioreactor (MBR1, MBR2) MTBE degradation. The arrangement: species or system Hydrogenophaga flava. On the procedure: A calculated solids retention time (SRT) of 160 days was maintained by removing a portion of the reactor contents each day. The dissolved oxygen concentration in the reactor was maintained at ˜2 mg/L by adding air.

For experiment [6], the system named is ENV 735-containing culture from MBR1. Kind of experiment: Fluid bed bioreactor (FBR) MTBE degradation. The conditions noted are these: flow rate increased 3-fold, 1 hr HRT. On the procedure:
A laboratory-scale FBR was constructed from a glass column with Teflon and stainless steel tubing and fittings to minimize abiotic losses. […] The carbon was fluidized to an expanded bed height of 125% of the original bed height by using a gear pump in the recycle line. Contaminated water was fed at a rate of 5.6 to 17 mL/min using a peristaltic pump, corresponding to hydraulic retention times (HRTs) of approximately 3 to 1 h, respectively. The HRT was calculated based on expanded bed volume and feed flow rate (assumes no significant biodegradation occurred in other wetted areas of the reactor).

Experiment [7] deals with hydrogen-oxidizing microorganism. Kind of experiment: Bioreactor laboratory testing, continuous operation. The following applies: hydraulic retention time of 2.5 hr to 3 days. The source says: Batch operation can be initiated by inoculating the reactor with the hydrogen-oxidizing microorganism and then adding tertiary butyl alcohol, for example, to a final concentration of from 0.1 to 1% (v/v). The organisms are aerated and allowed to grow until no tertiary butyl alcohol remains in the culture medium. Additional tertiary butyl alcohol can then be added to further increase biomass levels. After sufficient biomass is obtained, a small amount of contaminant (e.g., MTBE) can be added to acclimate the organisms. Additional contaminant can be added after depletion of the prior addition. When sufficient degradation rates are achieved, the reactor can be operated in a continuous mode. Preferably, during continuous and batch operation, the reactor should be operated at a temperature of between 25 and 37° C., with the pH in the range of 6.8 to 7.2, and a dissolved oxygen concentration >2 mg/L. Hydraulic retention time within the reactor should be adjusted to allow sufficient time for degradation of the target compound to below treatment standards. […] Furthermore, the volatile suspended solids (biomass) concentration should be maintained at a relatively high concentration, preferably from 1,000 to 30,000 mg/l depending on the contaminant loading rate.

Where [8] appears, read: growth of ENV735 on the substrate.

Read-outs that look alike come from different tables or passages of the source.

As to `CC(O)C(=O)O` (centres unmarked) [Lactic acid], the Growth entry in the experiment on strain ENV735 [1] (setting [8]) is recorded as “+/−”.

For `CC(C)(O)C(=O)O` [2-Hydroxy isobutyric acid], the Growth entry in the experiment with strain ENV735 [1] (setting [8]) is listed as “+”. With `[HH]` [H2, hydrogen], in the experiment on strain ENV735 [1] (strain ENV735), the “Growth on H2 as a sole energy source” value is on record as “grew readily”. Also, the “effect of presence of H2 on MTBE degradation” value with strain ENV735 [2] (strain ENV735) is recorded as “not inhibited”. Consider `CCCO` [1-Propanol], for which, in the experiment with strain ENV735 [1] (setting [8]), the Growth entry is listed as “+/−”. As for `OC[C@H]1O[C@@](CO)(O[C@H]2O[C@H](CO)[C@@H](O)[C@H](O)[C@H]2O)[C@@H](O)[C@@H]1O` [Sucrose], in the experiment on strain ENV735 [1] (setting [8]), the Growth entry is listed as “+++”. Still for that read-out and setting: the result for `CO` [Methanol] reads “−”; that for `N[C@@H](CCC(=O)O)C(=O)O` [Glutamic acid], “+/−”; that for `CC(=O)C(=O)O` [Pyruvic acid], “+/−”. Consider `CC(=O)[O-].[Na+]` [Sodium acetate], for which the Growth entry with strain ENV735 [1] (setting [8]) is listed as “+/−”. Take `CC(C)(C)O` [TBA, tertiary-butyl alcohol]: the Growth result with strain ENV735 [1] was “+++”. Further, the “initial TBA degradation rate” value in the experiment on strain ENV735 [3] is listed as 30 nmoles TBA/min./mg cell protein.

Turning to `CCC` [Propane], in the experiment on strain ENV735 [1] (setting [8]), the Growth result is given as “+/−”. Consider Casein, for which, in the experiment on strain ENV735 [1] (setting [8]), the Growth entry is recorded as “+”. For `CCC(C)C` [Iso-Pentane], the Growth entry in the experiment with strain ENV735 [1] (setting [8]) was “−”. For the molecule `COC(C)(C)C` [[^14C]MTBE], the “added [14C]MTBE recovered as 14CO2” value in the experiment with strain ENV735 [4] is recorded as “Approximately 80%”. Regarding `CC(C)O` [2-Propanol], the Growth result in the experiment on strain ENV735 [1] (setting [8]) is on record as “−”. The same measure, in the same setting: the result for `CCC(=O)O` [Propionic acid] reads “−”. Turning to `COC(C)(C)C` [MTBE, methyl-tert-butyl ether], the “transformation of MTBE” value in experiment [5] is listed as “about 50%”. The Growth entry in the experiment on strain ENV735 [1] (setting [8]) is given as “+”. Also, the MTBE removal rate in the experiment with ENV 735 (MBR1, 1 d HRT, influent ˜1000 mg/L) was 42 mg/L/h; with ENV 735 (MBR2, influent ˜2000 mg/L), 28 mg/L/h. Besides, the “MTBE stripping as share of MTBE loss” value in the experiment on ENV 735 (effluent air of MBRs) is on record as less than 5%. In addition, in experiment [6], the “removal of added MTBE” value is greater than 90%. Also, the “degradation of influent MTBE” value in experiment [7] is reported as greater than 90%. Besides, in the experiment on strain ENV735 [2] (30° C., YE-grown cells, 25 mg/L MTBE), the “initial maximum MTBE oxidation rate” value is given as 86 nmole MTBE/min./mg total cell protein.
